Measured values taken from patent US12564582B2 (Prilenia Neurotherapeutics Ltd., priority 2016, dated 2026).
Where two headings read alike, the source gives them in different places.

How the values were obtained:
rat striatum = conditions: transcriptomic analysis (Geva 2016); cited from earlier work
[1] = test system: patients with Huntington's disease; conditions: Week 26; for Δ to placebo, change from baseline in UHDRS TMS Chorea: ALL; for Wk 26 Δ to placebo, change from baseline in UHDRS TMS Chorea: Stage 1 BL TFC 11-13;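 on Δ to placebo, change from baseline in UHDRS TMS Finger Tapping+Pronate-Supinate Hands: finger tapping item rates tapping with fingers of both hands, normal being 15 taps within 5 s, the combined score adds forearm pronation and supination on each side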;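 on Δ to placebo, change from baseline in UHDRS TMS Finger Taps: finger tapping item rates tapping with fingers of both hands, normal being 15 taps within 5 s, the combined score adds forearm pronation and supination on each side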
Description: In the UHDRS, maximal chorea was scored from 0 (absent) to 4 (marked/prolonged) on each of the following items: face, mouth, trunk, right upper extremity, left upper extremity, right lower extremity, and left lower extremity. Maximal chorea is the sum of all scores.

[2] = test system: patients with Huntington's disease; conditions: for Δ to placebo, change from baseline in UHDRS TMS Gait and Balances: Week 52; for Δ to placebo, change from baseline in UHDRS TMS Gait and Balance: BL TFC≥7;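 on Δ to placebo, change from baseline in UHDRS TMS Finger Taps: finger tapping item rates tapping with fingers of both hands, normal being 15 taps within 5 s, the combined score adds forearm pronation and supination on each side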
Description: • CIBIC-Plus global score as compared to baseline • Change from baseline in the PDS score • Change from baseline in UHDRS FA • CGIC as compared to baseline • Change from baseline in UHDRS TFC • Change from baseline in UHDRS IS Global/Functional Scales: • Change from baseline in HD QOL • Change from baseline in Walk-12 scale TMS Subscores: • Change from baseline in hand movement score (defined as the sum of UHDRS domains finger taps, pronate-supinate hands and luria [fist-hand-palm test]) • Change from baseline in Gait and balance score (defined as the sum of UHDRS domains gait, tandem walking and retropulsion pull test) • Change from baseline in UHDRS mMS (defined as the sum of UHDRS domains dysarthria, tongue protrusion, finger taps, pronate-supinate hands, luria, rigidity, bradykinesia, gait, tandem walking, retropulsion pull test) • Change from baseline in UHDRS Chorea • Change from baseline in UHDRS Dystonia • Responders, defined as patients with UHDRS TMS change from baseline≤0 Other Motor Assessments: • Change from baseline in Q Motor measurements including digitomotography (speeded index finger tapping), dysdiadochomotography (pronation/supination hand tapping), manumotography and choreomotography (grip force and chorea analysis) and pedomotography (speeded foot tapping) • Change from baseline in the TUG test Cognitive/Psychiatric Assessments: • Change from baseline in HD-CAB brief: SDMT, Emotion Recognition, Trail Making Test, HVLT-R, Paced Tapping at 3 Hz, OTS. • Change from baseline in PBA-s Safety Variables and Endpoints
The gait and balance score is defined as the sum of UHDRS domains gait, tandem walking and retropulsion pull test.

[3] = test system: patients with Huntington's disease;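 on Δ to placebo, change from baseline in UHDRS TMS Finger Taps: finger tapping item rates tapping with fingers of both hands, normal being 15 taps within 5 s, the combined score adds forearm pronation and supination on each side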
Description: Finger Taps and Pronate-Supinate (P/S) hands is a combination of finger tapping (the ability to tap the fingers of both hands where 15 repetitions in 5 seconds is considered normal) with pronation/supination (the ability to rotate the forearm and hand such that the palm is down (pronation) and to rotate the forearm and hand such that the palm is up (supination) on both sides of the body).
The hand movement score is defined as the sum of UHDRS domains finger taps, pronate-supinate hands and luria (fist-hand-palm test).
An assessment of the ability to rotate the forearm and hand such that the palm is down (pronation) and to rotate the forearm and hand such that the palm is up (supination) on both sides of the body.

L-DOPA-induced dystonia = test system: L-DOPA-induced dystonia
Description: Data are median (FIG. 19A) with individual values (FIG. 19BB). N=8 for all treatment groups. */**/*** represents P<0.05, P<0.01 or P<0.001 cf. vehicle-treatment. 2-way RM ANOVA (FIG. 19A) with Holm-Sidak's test or Friedman test with Dunn's test (FIG. 19B).

[4] = 45 mg bid, score at week 26, patients who have completed 52 weeks of treatment
[5] = 45 mg bid, score at week 52, patients who have completed 52 weeks of treatment
[6] = 67.5 mg bid, score at week 26, patients who have completed 52 weeks of treatment
[7] = 67.5 mg bid, score at week 52, patients who have completed 52 weeks of treatment
[8] = 90 mg bid, score at week 26, patients who have completed 52 weeks of treatment
[9] = 90 mg bid, score at week 52, patients who have completed 52 weeks of treatment
[10] = 112.5 mg bid, score at week 26, patients who have completed 52 weeks of treatment
[11] = 112.5 mg bid, score at week 52, patients who have completed 52 weeks of treatment

CCCN1CCC(c2cccc(S(C)(=O)=O)c2)CC1 [pridopidine, 4-[3-(methylsulfonyl)phenyl]-1-propyl-piperidine]
expression of the BDNF, dopamine receptor 1 (D1R), glucocorticoid receptor (GR) and Akt/PI3K pathways (rat striatum): activates expression | Δ to placebo, change from baseline in UHDRS TMS Chorea ([1]; 45 mg bid): 0.92 | Wk 26 Δ to placebo, change from baseline in UHDRS TMS Chorea ([1]; 45 mg bid): −1.4 | Δ to placebo, change from baseline in UHDRS TMS Chorea ([1]; 67.5 mg bid): 0.81 | Wk 26 Δ to placebo, change from baseline in UHDRS TMS Chorea ([1]; 67.5 mg bid): −2.07 | Δ to placebo, change from baseline in UHDRS TMS Chorea ([1]; 90 mg bid): 0.36 | Wk 26 Δ to placebo, change from baseline in UHDRS TMS Chorea ([1]; 90 mg bid): −2.52 | Δ to placebo, change from baseline in UHDRS TMS Chorea ([1]; 112.5 mg bid): 1.05 | Wk 26 Δ to placebo, change from baseline in UHDRS TMS Chorea ([1]; 112.5 mg bid): −1.08 | Δ to placebo, change from baseline in UHDRS TMS Gait and Balances ([2]; 45 mg bid, Stage 1 BL TFC 11-13): −0.94 | Δ to placebo, change from baseline in UHDRS TMS Gait and Balances ([2]; 45 mg bid, all pridopidine treated patients): −0.09 | Δ to placebo, change from baseline in UHDRS TMS Gait and Balance ([2]; 45 mg bid, week 26): −0.48 | Δ to placebo, change from baseline in UHDRS TMS Gait and Balance ([2]; 45 mg bid, week 52): −0.41 | Δ to placebo, change from baseline in UHDRS TMS Gait and Balances ([2]; 67.5 mg bid, Stage 1 BL TFC 11-13): −0.53 | Δ to placebo, change from baseline in UHDRS TMS Gait and Balances ([2]; 67.5 mg bid, all pridopidine treated patients): −0.05 | Δ to placebo, change from baseline in UHDRS TMS Gait and Balance ([2]; 67.5 mg bid, week 26): −0.37 | Δ to placebo, change from baseline in UHDRS TMS Gait and Balance ([2]; 67.5 mg bid, week 52): −0.43 | Δ to placebo, change from baseline in UHDRS TMS Gait and Balances ([2]; 90 mg bid, Stage 1 BL TFC 11-13): −0.49 | Δ to placebo, change from baseline in UHDRS TMS Gait and Balances ([2]; 90 mg bid, all pridopidine treated patients): −0.01 | Δ to placebo, change from baseline in UHDRS TMS Gait and Balance ([2]; 90 mg bid, week 26): −0.62 | Δ to placebo, change from baseline in UHDRS TMS Gait and Balance ([2]; 90 mg bid, week 52): −0.28 | Δ to placebo, change from baseline in UHDRS TMS Gait and Balances ([2]; 112.5 mg bid, Stage 1 BL TFC 11-13): −0.4 | Δ to placebo, change from baseline in UHDRS TMS Gait and Balances ([2]; 112.5 mg bid, all pridopidine treated patients): 0.04 | Δ to placebo, change from baseline in UHDRS TMS Gait and Balance ([2]; 112.5 mg bid, week 26): −0.49 | Δ to placebo, change from baseline in UHDRS TMS Gait and Balance ([2]; 112.5 mg bid, week 52): −0.09 | Δ to placebo, change from baseline in UHDRS TMS Finger Taps ([3]; 45 mg bid, Week 26, ALL): −0.3 | Δ to placebo, change from baseline in UHDRS TMS Finger Taps ([3]; 45 mg bid, Week 26, BL TFC≥9, CAG Repeats <44, BL TMS 1st 3 Qs): −0.87 | Δ to placebo, change from baseline in UHDRS TMS Finger Taps ([3]; 45 mg bid, Week 26, BL TFC≥9 and CAG Repeats>44): −0.86 | Δ to placebo, change from baseline in UHDRS TMS Finger Tapping+Pronate-Supinate Hands [3, 4]: −0.79 | Δ to placebo, change from baseline in UHDRS TMS Finger Taps [3, 4]: −0.59 | Δ to placebo, change from baseline in UHDRS TMS Finger Tapping+Pronate-Supinate Hands [3, 5]: −0.37 | Δ to placebo, change from baseline in UHDRS TMS Finger Taps [3, 5]: −0.31 | Δ to placebo, change from baseline in UHDRS TMS Finger Taps ([3]; 67.5 mg bid, Week 26, ALL): −0.07 | Δ to placebo, change from baseline in UHDRS TMS Finger Taps ([3]; 67.5 mg bid, Week 26, BL TFC≥9, CAG Repeats <44, BL TMS 1st 3 Qs): −0.36 | Δ to placebo, change from baseline in UHDRS TMS Finger Taps ([3]; 67.5 mg bid, Week 26, BL TFC≥9 and CAG Repeats>44): −0.34 | Δ to placebo, change from baseline in UHDRS TMS Finger Tapping+Pronate-Supinate Hands [3, 6]: 0.02 | Δ to placebo, change from baseline in UHDRS TMS Finger Taps [3, 6]: −0.13 | Δ to placebo, change from baseline in UHDRS TMS Finger Tapping+Pronate-Supinate Hands [3, 7]: 0.68 | Δ to placebo, change from baseline in UHDRS TMS Finger Taps [3, 7]: 0.13 | Δ to placebo, change from baseline in UHDRS TMS Finger Taps ([3]; 90 mg bid, Week 26, ALL): −0.07 | Δ to placebo, change from baseline in UHDRS TMS Finger Taps ([3]; 90 mg bid, Week 26, BL TFC≥9, CAG Repeats <44, BL TMS 1st 3 Qs): −0.54 | Δ to placebo, change from baseline in UHDRS TMS Finger Taps ([3]; 90 mg bid, Week 26, BL TFC≥9 and CAG Repeats>44): −0.52 | Δ to placebo, change from baseline in UHDRS TMS Finger Tapping+Pronate-Supinate Hands [3, 8]: 0.02 | Δ to placebo, change from baseline in UHDRS TMS Finger Taps [3, 8]: −0.01 | Δ to placebo, change from baseline in UHDRS TMS Finger Tapping+Pronate-Supinate Hands [3, 9]: 0.48 | Δ to placebo, change from baseline in UHDRS TMS Finger Taps [3, 9]: 0.08 | Δ to placebo, change from baseline in UHDRS TMS Finger Taps ([3]; 112.5 mg bid, Week 26, ALL): −0.12 | Δ to placebo, change from baseline in UHDRS TMS Finger Taps ([3]; 112.5 mg bid, Week 26, BL TFC≥9, CAG Repeats <44, BL TMS 1st 3 Qs): −1.05 | Δ to placebo, change from baseline in UHDRS TMS Finger Taps ([3]; 112.5 mg bid, Week 26, BL TFC≥9 and CAG Repeats>44): −1.07 | Δ to placebo, change from baseline in UHDRS TMS Finger Tapping+Pronate-Supinate Hands [3, 10]: −0.23 | Δ to placebo, change from baseline in UHDRS TMS Finger Taps [3, 10]: −0.21 | Δ to placebo, change from baseline in UHDRS TMS Finger Tapping+Pronate-Supinate Hands [3, 11]: 0.28 | Δ to placebo, change from baseline in UHDRS TMS Finger Taps [3, 11]: 0.1 | levels of dystonia, significance cf. LDh-vehicle (L-DOPA-induced dystonia; 15 mg/kg, 1 h epoch 1): ns | levels of dystonia, significance cf. LDh-vehicle (L-DOPA-induced dystonia; 15 mg/kg, 1 h epoch 2): ns | levels of dystonia, significance cf. LDh-vehicle (L-DOPA-induced dystonia; 15 mg/kg, 1 h epoch 3): ns | levels of dystonia, significance cf. LDh-vehicle (L-DOPA-induced dystonia; 15 mg/kg, 1 h epoch 4): ns | levels of dystonia, significance cf. LDh-vehicle (L-DOPA-induced dystonia; 15 mg/kg, 1 h epoch 5): ns | levels of dystonia, significance cf. LDh-vehicle (L-DOPA-induced dystonia; 15 mg/kg, 1 h epoch 6): ns | levels of dystonia, significance cf. LDh-vehicle (L-DOPA-induced dystonia; 20 mg/kg, 1 h epoch 1): * (P<0.05) | levels of dystonia, significance cf. LDh-vehicle (L-DOPA-induced dystonia; 20 mg/kg, 1 h epoch 2): ns | levels of dystonia, significance cf. LDh-vehicle (L-DOPA-induced dystonia; 20 mg/kg, 1 h epoch 3): ns | levels of dystonia, significance cf. LDh-vehicle (L-DOPA-induced dystonia; 20 mg/kg, 1 h epoch 4): ns | levels of dystonia, significance cf. LDh-vehicle (L-DOPA-induced dystonia; 20 mg/kg, 1 h epoch 5): ns | levels of dystonia, significance cf. LDh-vehicle (L-DOPA-induced dystonia; 20 mg/kg, 1 h epoch 6): ns | median levels of dystonia (L-DOPA-induced dystonia; 20 mg/kg, first hour): between moderate and marked | levels of dystonia, significance cf. LDh-vehicle (L-DOPA-induced dystonia; 30 mg/kg, 1 h epoch 1): ** (P<0.01) | levels of dystonia, significance cf. LDh-vehicle (L-DOPA-induced dystonia; 30 mg/kg, 1 h epoch 2): *** (P<0.001) | levels of dystonia, significance cf. LDh-vehicle (L-DOPA-induced dystonia; 30 mg/kg, 1 h epoch 3): * (P<0.05) | levels of dystonia, significance cf. LDh-vehicle (L-DOPA-induced dystonia; 30 mg/kg, 1 h epoch 4): ns | levels of dystonia, significance cf. LDh-vehicle (L-DOPA-induced dystonia; 30 mg/kg, 1 h epoch 5): ns | levels of dystonia, significance cf. LDh-vehicle (L-DOPA-induced dystonia; 30 mg/kg, 1 h epoch 6): ns | median levels of dystonia (printed dyskinesia) (L-DOPA-induced dystonia; 30 mg/kg, cumulated over 0-2 h): below mild (non-disabling) | reduction of median levels of dystonia compared to LDh-vehicle (L-DOPA-induced dystonia; 30 mg/kg, cumulated over 0-2 h): 72% | median levels of dystonia (L-DOPA-induced dystonia; 30 mg/kg, first, second and third hours): mild to moderate | levels of L-DOPA-induced dystonia evoked by LDh (L-DOPA-induced dystonia; 15, 20, 30 mg/kg combined with LDh): significant and dose-dependent reduction
